Calls of active or inactive are those of the source. The rule behind the calls is not given here.
The molecules below were run against Ubiquitin carboxyl-terminal hydrolase 10 (Homo sapiens) (UniProt Q14694) (assay: primary hit verification, biochemical, ubiquitin-specific protease 10 deubiquitylase inhibitors, concentration-effect titration (AID 1645863;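 note: potency values describe inhibition of USP10 cleavage of a fluorogenic ubiquitin substrate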)). Conditions: USP10 deubiquitinase enzymatic assay.
Ubiquitin carboxyl-terminal hydrolase 10 (Homo sapiens), sequence (Q14694 whole entry, looked up): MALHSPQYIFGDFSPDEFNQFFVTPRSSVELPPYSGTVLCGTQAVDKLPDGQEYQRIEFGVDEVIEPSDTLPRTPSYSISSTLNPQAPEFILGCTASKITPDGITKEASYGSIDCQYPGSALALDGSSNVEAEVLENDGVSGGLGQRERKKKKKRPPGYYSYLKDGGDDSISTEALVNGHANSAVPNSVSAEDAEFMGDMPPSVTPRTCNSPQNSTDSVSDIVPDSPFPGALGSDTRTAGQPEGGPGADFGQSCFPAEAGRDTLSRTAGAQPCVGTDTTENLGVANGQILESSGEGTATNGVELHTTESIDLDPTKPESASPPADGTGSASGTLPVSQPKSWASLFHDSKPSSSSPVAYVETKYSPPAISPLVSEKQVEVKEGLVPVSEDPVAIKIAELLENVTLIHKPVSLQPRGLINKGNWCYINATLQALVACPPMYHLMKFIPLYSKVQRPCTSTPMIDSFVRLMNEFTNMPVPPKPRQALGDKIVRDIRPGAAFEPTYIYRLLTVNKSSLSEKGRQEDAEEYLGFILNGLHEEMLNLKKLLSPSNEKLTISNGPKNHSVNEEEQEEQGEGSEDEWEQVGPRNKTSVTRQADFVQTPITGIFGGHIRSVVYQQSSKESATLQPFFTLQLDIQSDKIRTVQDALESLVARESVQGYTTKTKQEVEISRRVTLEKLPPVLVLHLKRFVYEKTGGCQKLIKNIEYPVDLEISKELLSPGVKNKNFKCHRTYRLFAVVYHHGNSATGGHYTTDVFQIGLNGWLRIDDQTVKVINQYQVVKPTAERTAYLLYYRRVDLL
In the case of CCc1ccc(S(=O)(=O)c2cn(CC(=O)Nc3ccccc3)c3ccccc3c2=O)cc1, the IC50 is reported as > 40 µM (inactive).
Cc1ccc(Nc2nc(O)c(CC(=O)Nc3cccc(Cl)c3C)s2)cc1C showed an IC50 of 25.4 µM.
With COc1ccc(C(=O)Nc2ccccc2C(=O)NC(Cc2ccc(O)cc2)C(=O)NNC(=O)c2ccccc2Cl)cc1 (stereo not drawn) the IC50 was > 40 µM (inactive).
For Cc1ccccc1NC(=O)CSC1=NC2(CCCCC2)Nc2ccccc21, the IC50 was > 40 µM (inactive).
With COc1ccc(-n2c(=O)c3ccc(C(=O)NCCc4ccccc4)cc3n(CC(=O)NCc3ccco3)c2=O)cc1 the IC50 was > 40 µM (inactive).
In the case of Cc1ccccc1-c1noc(-c2cn(Cc3ccc(NC(=O)Cc4ccccc4)cc3)cn2)n1, the IC50 is reported as > 40 µM (inactive).
With O=C(/C=C/c1ccco1)c1cccc([N+](=O)[O-])c1 the IC50 was 35.1 µM.
With O=C1CC(c2nc3ccccc3n2CCOc2ccc(Cl)cc2)CN1c1ccccc1 (stereo not drawn) the IC50 was 39.3 µM.
In the case of COc1ccc(CNC(=O)CN2C(=O)CC(c3ccccc3)=Nc3ccccc32)cc1, the IC50 is reported as > 40 µM (inactive).
Cc1c(C)n(-c2ccccc2)c2ncn(CC(=O)NCc3cccc(F)c3)c(=O)c12 was tested, and the IC50 was > 40 µM (inactive).
Cc1cc(C)cc(NC(=O)Nc2ccccc2OCc2cc(=O)n3c(ncn3C(C)C)n2)c1 showed an IC50 of 14.3 µM.
For COCCCNC(=O)c1ccc(Cn2c(=O)c3ccccc3n(CC(=O)Nc3ccc4c(c3)OCCO4)c2=O)cc1, the IC50 was > 40 µM (inactive).
CCC/C=C\C#CC/C=C\CCCCCCCC(=O)O showed an IC50 of 3.3 µM.
With O=C(Cn1c(=O)c2sccc2n(CC(=O)OCc2ccccc2)c1=O)NCc1ccccc1Cl the IC50 was 16.8 µM.
With Cc1cc(N2CCN(c3ncccn3)CC2)nc2ccc(NC(=O)c3ccncc3)cc12 the IC50 was > 40 µM (inactive).
In the case of COc1ccc(-c2cc3nc([C@H](C)NC(=O)Cc4cccc(F)c4)nn3cn2)cc1, the IC50 is reported as > 40 µM (inactive).
For COc1cccc(C(=O)Nc2ccc(SC(C)C(=O)Nc3ccc(C(N)=O)cc3)cc2)c1 (stereo not drawn), the IC50 was 24.9 µM.
In the case of Cc1cc(CN2CCCCC2c2cc(=O)n3ccnc3[nH]2)no1 (stereo not drawn), the IC50 is reported as > 40 µM (inactive).
Cn1cc(C(=O)Nc2ccccc2)c2[nH]c(=O)n(Cc3ccccc3)c(=O)c21 was tested, and the IC50 was > 40 µM (inactive).
Cc1ccc(NC(=O)Cc2nnc3c(-c4nc(C5CC5)no4)cccn23)cc1F was tested, and the IC50 was 31.5 µM.
CSc1ncccc1C(=O)NC1(O)C(=O)c2ccccc2C1=O gave an IC50 of 9.86 µM.
Cc1ccc2cc(-c3noc(CCC(=O)NC4CCCC4)n3)c(=O)[nH]c2c1 was tested, and the IC50 was > 40 µM (inactive).
For CC(c1ccccc1)N1CC(O)=C(c2nc3ccccc3s2)C1=N (stereo not drawn), the IC50 was > 40 µM (inactive).
O=C(Nc1ccccc1C(=O)NC1CCSC1)c1ccc([N+](=O)[O-])cc1 (stereo not drawn) was tested, and the IC50 was > 40 µM (inactive).
For COc1cccc(N2CCCN(C(=O)c3ccc4nc(C)[nH]c4c3)CC2)c1, the IC50 was > 40 µM (inactive).
In the case of CC(=O)c1cccc(NC(=O)COC(=O)c2sc3cc(F)ccc3c2Cl)c1, the IC50 is reported as > 40 µM (inactive).
In the case of COc1ccccc1C(=O)N1CCC[C@H](Cn2nnc(-c3cccnc3)n2)C1, the IC50 is reported as > 40 µM (inactive).
Cc1ccc(-n2cc(C(=O)NCCCc3ccccc3)nn2)cc1 gave an IC50 of 29.5 µM.
With C[C@@H]1OC2=C(C(=O)c3cccc(O)c3C2=O)[C@H](O)[C@@H]1O the IC50 was 6.1 µM.
CCOC(=O)c1cc2c(ccn2C)n1CC(=O)NC1CC1 was tested, and the IC50 was > 40 µM (inactive).
CCCCCCCCCC(CCCCCCCCCC(=O)O)O[C@H]1O[C@@H](COC(C)=O)[C@H](O)[C@@H](OC(=O)CC(=O)O)[C@H]1O (stereo partly drawn) was tested, and the IC50 was 30.6 µM.
For Cc1nnc2ccc(-c3ccc(NC(=O)c4ccc(Br)o4)cc3)nn12, the IC50 was > 40 µM (inactive).
In the case of CC(C)(C)C(=O)C1C2C(=O)N(c3ccc4c(c3)OCO4)C(=O)C2C2c3ccccc3C=CN12 (stereo not drawn), the IC50 is reported as > 40 µM (inactive).
With Cn1c(=O)c2ncnnc2n(C)c1=O the IC50 was 3.09 µM.
For CCOc1ccc(NS(=O)(=O)c2ccc(NC(=O)Nc3ccccc3)cc2)cc1, the IC50 was > 40 µM (inactive).
COc1ccc(Cn2nc(C)cc2NC(=O)c2cccc(F)c2)cc1OC was tested, and the IC50 was > 40 µM (inactive).
For Cc1ccccc1NC(=O)Cn1ccc2ccn(Cc3ccccc3)c2c1=O, the IC50 was > 40 µM (inactive).
For COc1ccc(-c2noc(C3(c4ccc(F)cc4)CCOCC3)n2)cc1, the IC50 was > 40 µM (inactive).
With CCCCN1CC(C(=O)Nc2ccc(C(=O)Nc3ccc(C(N)=O)cc3)cc2)CC1=O (stereo not drawn) the IC50 was > 40 µM (inactive).
Cc1nnc(-c2ccc3ccn(CC(=O)N4CCN(c5ccccc5)CC4)c3c2)o1 was tested, and the IC50 was > 40 µM (inactive).
With Cc1cccc(-n2ccnc(SCC(=O)Nc3ccc(Cl)cc3F)c2=O)c1 the IC50 was 16.1 µM.
For N=C1/C(=C/c2cn(Cc3ccccc3F)c3ccccc23)C(=O)N=C2SC(C(F)(F)F)=NN12, the IC50 was “inactive”.
Molecule CCC(=O)N1c2ccccc2NC2=C(C(=O)CC(c3ccccc3OCc3ccccc3)C2)C1c1ccccc1 (stereo not drawn) has an IC50 of 35.7 µM.
Cc1cccc(NC(=O)CNC(=O)c2ccc(-c3noc(C4CCCC4)n3)cc2)c1C was tested, and the IC50 was > 40 µM (inactive).
In the case of COc1ccc(C(=O)COC(=O)c2cccc(NC(=O)c3ccc(Cl)cc3)c2)cc1, the IC50 is reported as > 40 µM (inactive).
In the case of O=C1CC(O)C(O)c2cccc(O)c21 (stereo not drawn), the IC50 is reported as > 40 µM (inactive).
With COc1ccc(-c2cc3c(=O)n(CC(=O)NCc4ccccc4)ncn3n2)cc1 the IC50 was > 40 µM (inactive).
For Cc1ccc(S(=O)(=O)N2CCC3(CC2)OC(=O)Nc2ccccc23)cc1, the IC50 was > 40 µM (inactive).
COc1ccc(S(=O)(=O)N2CCc3ccccc32)cc1C(=O)Nc1ccc2[nH]c(=O)[nH]c2c1 gave an IC50 of 24.2 µM.
For O=S1(=O)CCN(Cc2c(F)cccc2F)c2c(F)nc(N3CCOCC3)c(F)c21, the IC50 was > 40 µM (inactive).
O=C(Nc1c2c(nn1-c1ccc([N+](=O)[O-])cc1)CSC2)c1c(F)cccc1F was tested, and the IC50 was > 40 µM (inactive).
CC(=O)[C@H]1c2c(c(O)c3c(O)cccc3c2-c2c3c(c(O)c4c(O)cccc24)C(=O)C[C@](C)(O)[C@H]3C(C)=O)C(=O)C[C@]1(C)O was tested, and the IC50 was 39.3 µM.
In the case of COc1ccc2[nH]c(=O)c(CN(C)C(=O)c3ccc([N+](=O)[O-])cc3)cc2c1, the IC50 is reported as > 40 µM (inactive).
In the case of O=C(NCc1ccco1)c1ccc(Cn2c(SCc3ccccc3)nc3ccncc32)cc1, the IC50 is reported as > 40 µM (inactive).
With CN(C)c1ccc(S(=O)(=O)N2CCCCC2)cc1NC(=O)COc1ccccc1 the IC50 was > 40 µM (inactive).
COc1ccc(NC(=O)Cn2c(=O)n(Cc3ccco3)c(=O)c3ccc(C(=O)NC4CCCC4)cc32)cc1 was tested, and the IC50 was > 40 µM (inactive).
With CCOc1ccc(Oc2nc(CN3CCCC3)nc3sc(C)c(C)c23)cc1 the IC50 was > 40 µM (inactive).
Cn1c(=O)c(C(=O)Nc2ccc(Br)cc2)nc2ccccc21 showed an IC50 of 26.5 µM.
Work on CCn1cc2c(n1)c(=O)n(Cc1ccccc1)c(=O)n2CC(=O)Nc1ccc(C)cc1C yielded an IC50 of 12.1 µM.
O[C@H]1[C@H](NCc2cccc(C(F)(F)F)c2)[C@@H](c2cncnc2)C[C@H]1O was tested, and the IC50 was > 40 µM (inactive).
CCc1cccc(C)c1NC(=O)Cn1nc2ccc(C(=O)NCc3ccccc3)cn2c1=O was tested, and the IC50 was 29.3 µM.
For CNC(=O)c1cc2nc(N(C)C)n(-c3ccc(F)cc3)c2s1, the IC50 was > 40 µM (inactive).
For CO/C=C/C(=O)c1cc2cnc3c(=N)cc(NC(C)=O)c([nH]1)c23, the IC50 was “inactive”.
In the case of Cc1cc(C)cc(NC(=O)C2CC(=O)Nc3nc4ccccc4n32)c1 (stereo not drawn), the IC50 is reported as > 40 µM (inactive).
For COc1cc(O)c2c(O)c3c(cc2c1)C[C@@]1(O)CC(=O)C(C(N)=O)=C(O)[C@@]1(O)C3=O, the IC50 was 7.47 µM.
For O=C(CSc1nc2c(cnn2-c2ccccc2)c(=O)[nH]1)Nc1ccc(Cl)cc1F, the IC50 was > 40 µM (inactive).
With O=C(c1ccccn1)N1CCC2(CC1)CC1(CO2)Nc2ccccc2-n2cccc21 (stereo not drawn) the IC50 was > 40 µM (inactive).
With O=C(Cc1ccc(-n2c(=O)c3ccccc3n(Cc3cccc([N+](=O)[O-])c3)c2=O)cc1)NC1CCCC1 the IC50 was > 40 µM (inactive).
Work on N#C/C(=C\c1ccc(OCc2cccc(C(=O)O)c2)cc1)c1ccc(F)cc1 yielded an IC50 of 20.2 µM.
With Cc1ccc(N2CC(C(=O)Nc3cccc(-c4noc(C)n4)c3)CC2=O)cc1 (stereo not drawn) the IC50 was > 40 µM (inactive).
With Cc1cc(Cl)ccc1NC(=O)c1cc(-c2cccnc2)n[nH]1 the IC50 was > 40 µM (inactive).
C/C(=C\Cc1c(O)cc(C)c(C=O)c1O)CC[C@@]1(C)[C@H](C)CCC(=O)[C@@H]1C was tested, and the IC50 was > 40 µM (inactive).
For Cc1cccc(C)c1NC(=O)COc1ccccc1-c1nnc(-c2ccccc2)o1, the IC50 was > 40 µM (inactive).
For N#Cc1cccc(NC(=O)COC(=O)c2n[nH]c3ccccc23)c1, the IC50 was 19.8 µM.
With O=C(/C=C/c1c(F)cccc1Cl)N1CCc2ccccc2C1 the IC50 was > 40 µM (inactive).
O=C1CC(C(=O)Nc2ccc3c(c2)OCO3)n2nc(SCc3ccccc3)nc2N1 (stereo not drawn) was tested, and the IC50 was > 40 µM (inactive).
Cc1cc(=O)n(C)c2c(O)c3c(cc12)c(C)cc(=O)n3C was tested, and the IC50 was > 40 µM (inactive).
In the case of O=C(c1ccco1)N1CCCC1c1nc(-c2ccccc2)n[nH]1 (stereo not drawn), the IC50 is reported as > 40 µM (inactive).
For COc1ccc(C2/C(=C(\O)c3ccccc3)C(=O)C(=O)N2c2nc3ccc(F)cc3s2)cc1 (stereo not drawn), the IC50 was 8.94 µM.
CCOC(=O)N1CCN(C(=O)c2ccc(CS(=O)c3ccccc3Cl)o2)CC1 (stereo not drawn) was tested, and the IC50 was > 40 µM (inactive).
O=C(CSc1oc(-c2ccc(F)cc2)nc1S(=O)(=O)c1ccc(F)cc1)Nc1ccc(F)cc1 gave an IC50 of 34.7 µM.
For CCOc1ccc2c(c1)c(=O)c(C(=O)c1ccc(F)cc1)cn2CC(=O)Nc1ccccc1, the IC50 was > 40 µM (inactive).
With CC1(C(=O)NCc2ccc(F)cc2)Cn2nc(-c3ccco3)cc2C(=O)N1c1ccc2c(c1)OCCO2 (stereo not drawn) the IC50 was > 40 µM (inactive).
In the case of COc1ccc(-n2ccn3c(CCC(=O)Nc4cccc(C)c4)nnc3c2=O)cc1, the IC50 is reported as > 40 µM (inactive).
With O=C(c1ccc2cc[nH]c2c1)N1CCC(Nc2cccnc2)C1 (stereo not drawn) the IC50 was > 40 µM (inactive).
For COC(=O)c1ccc(Nc2cc(C)nc3cc(C(F)(F)F)ccc23)cc1, the IC50 was 30.5 µM.
CC(C)NC(=O)Cn1ccn2nc(-c3ccc(Cl)cc3)cc2c1=O was tested, and the IC50 was > 40 µM (inactive).
With COC(=O)c1ccc2c(=O)n(CCCCCC(=O)NCCc3ccc(S(N)(=O)=O)cc3)c(=O)[nH]c2c1 the IC50 was 24.7 µM.
With O=C(CSc1nc(=O)n(Cc2ccncc2)c2c1CCC2)NCCc1ccccc1 the IC50 was > 40 µM (inactive).
With COc1cccc(-n2cnc3cc(C(=O)NCCc4ccccc4)ccc3c2=O)c1 the IC50 was 19.8 µM.
O=C(c1cnc2[nH][nH]c(=O)c2c1)c1cc(Cl)cc(Cl)c1O showed an IC50 of 5.78 µM.
In the case of O=C(NCc1ccc(Br)cc1)c1cc(-c2cccnc2)n[nH]1, the IC50 is reported as > 40 µM (inactive).
Molecule O=C(Cn1c(=O)n(-c2ccccc2)c(=O)c2ccc(C(=O)NCc3ccc4c(c3)OCO4)cc21)NCCC1=CCCCC1 has an IC50 of 16.2 µM.

From PubChem BioAssay AID1645863 (Buhrlage Lab, Dana-Farber Cancer Institute and Novartis …, 2021)
